Laboratory results as given in patent US10662225B2, “Backbone cyclized inhibitory peptides of myeloid differentiation factor 88 (MyD88)” (Yissum Research Development Company of the Hebrew …, priority 2016, dated 2020).
Numbered stars: 1 amine (or outer) side, 2 acyl side, 3 side chain; on linkers, the order of the positions; unused ones are H or OH. Bridge positions count the residues as written; N and C are the ends. Square brackets hold non-standard residues; d marks the D form. Ends that are not written are not given here. CO = O=C([*:1])[*:2]

What was measured:
[1] = tested on: MyD88-dependent signaling; test: TNFα production by THP-1 derived macrophages stimulated with PAM3csk; format: cell-based, human; details: THP-1 macrophages, PAM3csk overnight
Description: FIG. 5. Human monocytic THP-1 cells were differentiated to macrophages and were stimulated with PAM3csk overnight in the absence or presence of the cyclic 4-carbon bridge peptide or 6-carbon bridge peptide. TNFα levels in the supernatants were determined by ELISA.
Both cyclic peptides were synthesized with the addition of a tryptophan group to the N-terminus to enable accurate quantification of the molecules.

[2] = tested on: MyD88-dependent signaling; test: Library screen: TNFα production by U937 macrophage cells stimulated with PAM3Csk; format: cell-based, human; details: PAM3Csk overnight, peptide concentration estimated 2-4 μM
Description: FIG. 4. Screening results of the peptide library of 16 compounds. Human macrophage U937 cells were stimulated with PAM3csk overnight in the absence or presence of each of the cyclic peptides. Human TNFα levels in the supernatants were determined by ELISA. […].
The backbone cyclic library of 16 compounds synthesized in Example 3 was screened for inhibition of MyD88-dependent signaling through innate immune receptors employing the human macrophage cell line U937. […] The concentration of the cyclic peptides in the library was estimated to be 2-4 μM.

MyD88 TIR domain = target: T1, MyD88 TIR domain (Homo sapiens, UniProt Q99836); test: Competition assay: binding of biotinylated linear BB loop peptide to MyD88 TIR domain; details: different concentrations
T1 construct: made in house
T1 sequence (Q99836 151-296): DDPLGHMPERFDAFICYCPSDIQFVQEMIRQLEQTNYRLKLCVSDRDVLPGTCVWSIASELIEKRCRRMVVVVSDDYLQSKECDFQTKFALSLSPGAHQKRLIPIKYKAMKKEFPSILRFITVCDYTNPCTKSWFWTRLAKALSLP
Description: FIG. 9. 4×4MyDI binds to the BB loop region of the MyD88 TIR domain. A 96 well plate was coated with recombinant MyD88 (8 μg/ml) in coating buffer vs. buffer alone, and wells were blocked with 1% BSA. Biotinylated linear peptide was added to all wells (125 μg/ml) followed by streptavidin-HRP and substrate. The signal of linear peptide bound to its target was inhibited by incubation with the 4×4MyDI (*P<0.05) but not by incubation with the scrambled version of the linear peptide (SEQ ID NO: 5).
The ability of the 4×4MyDI compound to bind to the target region (the BB loop) of the MyD88 TIR domain, was evaluated using a newly-designed assay. For this goal a competition assay was established that tests the ability of the 4×4MyDI compound to prevent the binding of the biotinylated linear BB loop peptide to the MyD88 TIR domain. The MyD88 TIR domain was produced as a recombinant protein fused to the SUMO3 protein (Accession # NP_008867), purified, and attached to a 96 well plate. Binding of biotinylated RDVLPGT (SEQ. ID NO: 1) peptide was detected using streptavidin conjugated to horse radish peroxidase (HRP) followed by the addition of HRP substrate.

[3] = tested on: NFκB p65 nuclear translocation; test: NFκB p65 nuclear translocation in HeLa cells stimulated with TNFα or IL-1β; format: cell-based; details: HeLa cells
Description: FIG. 6. HeLa assay showing specificity of MyD88 inhibition. HeLa cells were stimulated with recombinant TNFα or IL-1β and NFkB localization was determined with anti-p65 conjugated to rhodamine. The percent of cells with nuclear localization was determined and is shown in the bar graphs on the right. 6A: Top row, HeLa cells transduced with control shRNA. Second row, shRNA knock-down of MyD88. 6B: Top row, HeLa cells treated with MyD88 inhibitor linear peptide. Bottom row, HeLa cells treated with scrambled control version of the MyD88 inhibitor linear peptide (SEQ ID NO: 5).
FIG. 7. HeLa assay showing specificity of MyD88 inhibition by 4×4MyDI. HeLa cells were stimulated with recombinant TNFα or IL-1b and NFkB localization was determined with anti-p65 conjugated to rhodamine. The percent of cells with nuclear localization was determined, and is shown in the bar graphs on the right. Top row, HeLa cells with no pre-treatment. Second row, HeLa cells pre-treated for 30 min with the backbone cyclic 4×4MyDI compound.
Lead compounds were further tested in vitro to confirm the specificity of the inhibition. A fluorescence-based in vitro activity assay that determines the degree of activation of the transcription factor NFκB was established. In this assay, cells are treated with either TNFα or IL-1b, both inflammatory cytokines that activate NFκB. Upon activation, the p65 unit of the NFκB transcription factor re-locates from the cytoplasm to the nucleus. Using fluorescently-tagged antibodies to p65, the cytoplasmic vs. nuclear localization of the factor is determined. Importantly, since the signaling of IL-1b, but not TNFα, is dependent on MyD88, this assay can establish the specificity of the inhibition achieved using the lead compounds.
Cells were activated with either IL-1β (the signaling of the IL-1 receptor is dependent on MyD88), or with TNFα (signaling of its receptor is independent of MyD88). The activation was measured by the translocation of NFκB from the cytoplasm to the nucleus. As a positive control, a stable MyD88 knock-down cell line was established using lentiviral encoded shRNA.
Using the same system, when cells were treated with the backbone cyclic peptide 4×4MyDI, activation by IL-1β was blocked, however when treated with TNFα the activation was not inhibited.

MyD88 = target: T2, MyD88 (Mus musculus, UniProt P22366); test: IL-18-induced IFN-γ secretion by MOG35-55 specific T cells (ELISA); format: cell-based
T2 construct: endogenous in cells; host or cells: MOG35-55 specific T cells
T2 sequence (P22366 whole entry): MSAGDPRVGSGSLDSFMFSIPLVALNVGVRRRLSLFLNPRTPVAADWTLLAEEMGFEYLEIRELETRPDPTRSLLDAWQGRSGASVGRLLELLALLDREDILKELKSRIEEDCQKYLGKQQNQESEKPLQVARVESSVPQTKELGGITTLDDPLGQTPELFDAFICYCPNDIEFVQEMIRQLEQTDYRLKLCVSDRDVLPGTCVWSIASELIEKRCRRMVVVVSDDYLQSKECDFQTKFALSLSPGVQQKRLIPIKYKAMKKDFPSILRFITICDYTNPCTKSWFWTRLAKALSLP
Description: FIG. 1. MyD88 inhibitor linear peptide down-regulates IL-18-induced T-cell interferon gamma (IFN-γ) production in vitro. A: MOG35-55 specific T cells were incubated with MIP (SEQ ID NO: 1), or the scrambled version of MIP (MIPscr, PTDLVRG, SEQ ID NO: 5), or without peptide (control) for 2 h. T-cells were then plated with (right side of graph) or without (left side of graph) 30 ng/ml IL-18 for 22 h and IFN-γ production was measured by ELISA. Asterisks denote P<0.0001 compared to no inhibitor peptide or MIPscr. B: MOG35-55 specific T cells were incubated with MIP (SEQ ID NO: 1), or the scrambled version of MIP (MIPscr, SEQ ID NO: 5), or without peptide (control) for 2 h. T-cells were then plated with (right side of graph) or without (left side of graph) 30 ng/ml IL-18 for 22 h in the presence of irradiated splenocytes and MOG35-55 peptide ([…], SEQ ID NO: 4) (5 μg/ml). IFN-γ production was measured by ELISA. Asterisks denote P<0.0001 compared to no inhibitor peptide.
To investigate the ability of the MyD88 inhibitor linear peptide (termed either MIP or MyDI) to inhibit MyD88 activity in T-cells in vitro, the secretion of IFN-γ by MOG-specific T cells in response to IL-18 stimulation was tested. The signaling of IL-18 trough the IL-18 receptor is MyD88 dependent. […] Cells were then stimulated with IL-18, and IFN-γ levels in the supernatants were analyzed after 24 h. […]

[4] = Metabolic stability in plasma (quantitative HPLC); format: in vitro ADME, human; details: plasma; 4×4MyDI: first two hours
Description: FIGS. 17A and 17B. 4×4MyDI is metabolically stable in comparison to the linear MyDI peptide. 4×4MyDI vs. linear MyDI heptapeptide were incubated independently in either human plasma […] or human plasma supplemented with Brush Border Membrane Vesicles (BBMV, 18B). At various time points the solution was sampled and the amount of remaining compound was determined by quantitative HPLC.
Peptide backbone cyclization confers metabolic stability on peptides that are inherently susceptible to degradation by proteases. […] The stability of the compounds was then tested in plasma enriched with Brush Border Membrane Vesicles (BBMV). This system models the degradative conditions of the intestine.

With “6×6 bridge peptide: backbone cyclic peptide of Formula IV with m=6, n=6 (W[Gly(Nα-(CH2)6-NH2)]RDVL[Gly(Nα-(CH2)6-NH2)]GT; bridge 2-7 via CO)” the “inhibition of TNFα production” value [1] was “inhibited the human macrophage production of TNFα” and the “MyD88 inhibitory activity (reduction in TNFα production)” value [2] was “greatest MyD88 inhibitory activity”.
In the case of PTDLVRG [MIPscr, reference compound], the “inhibition of binding of the biotinylated peptide to the MyD88 TIR domain” value (MyD88 TIR domain) is reported as “did not inhibit”, the “Percent p65 nuclear translocation, TNFα” value ([3]; TNFα (MyD88 independent)) is reported as 90% and the “Percent p65 nuclear translocation, No stimulation” value ([3]; no stimulation) is reported as 0%. For the same substance, the “IL-18-stimulated IFNγ level” value (MyD88; 20 mM peptide (so in the source), IL-18 stimulation, supernatants after 24 h) was “had no effect”.
For “RDVLPGT [MIP, Arg-Asp-Val-Leu-Pro-Gly-Thr, reference compound]”, the stability in plasma [4] was “disappears rapidly” and the “reduction of the level of IFN-γ” value (MyD88; T cells with APC presenting MOG35-55 peptide plus IL-18) was 30-35%.
